Laboratory results as given in patent US20260266848A1, “COMPOSITIONS AND METHODS FOR DIAGNOSING AND TREATING DYSTONIA” (Duke University, priority 2023, published 2026).

System: DYT-TOR1A MEF EVs
Experiment: Quantitative LC-MS/MS proteomics of EVs from drug-treated DYT-TOR1A MEF cultures (ritonavir, salubrinal)
Format: cell-based, mouse
Settings: 20 μM, 24 h

## O=C(/C=C/c1ccccc1)NC(NC(=S)Nc1cccc2cccnc12)C(Cl)(Cl)Cl (stereo not drawn) [salubrinal]
  DYT disrupted proteins (n=363) with significant corrective effects of salubrinal: 13%
Of 1974 proteins
  total EV proteins significantly modified by salubrinal: 9%
DYT1+Sal/DYT1
  Acaa1a (ACAA1) EV abundance Log2_FC: −0.8007
  Ano6 (ANO6) EV abundance Log2_FC: −0.3535
  Ap1b1 (AP1B1) EV abundance Log2_FC: 0.5874
  Ar18b (ARL8B) EV abundance Log2_FC: −0.08283
  Bzw2 (BZW2) EV abundance Log2_FC: −0.03057
  Cryab (CRYAB) EV abundance Log2_FC: 1.025
  DIst (DLST) EV abundance Log2_FC: −0.5172
  Ehd4 (EHD4) EV abundance Log2_FC: −0.149
  Flna (FLNA) EV abundance Log2_FC: −0.07088
  Fscn1 (FSCN1) EV abundance Log2_FC: −0.1414
  Gart (GART) EV abundance Log2_FC: 0.05776
  Hist1h1b (H1-5) EV abundance Log2_FC: −0.1163
  Hnrnpc (HNRNPC) EV abundance Log2_FC: −0.2845
  Ipo9 (IPO9) EV abundance Log2_FC: 0.3059
  Jam3 (JAM3) EV abundance Log2_FC: −0.6132
  Lipg (LIPG) EV abundance Log2_FC: −0.4507
  Lrrc59 (LRRC59) EV abundance Log2_FC: −0.4226
  Mapk3 (MAPK3) EV abundance Log2_FC: 0.6764
  Mars (MARS1) EV abundance Log2_FC: −0.1637
  Mrc2 (MRC2) EV abundance Log2_FC: 0.01917
  Myh9 (MYH9) EV abundance Log2_FC: −0.2742
  Ndnf (NDNF) EV abundance Log2_FC: −0.5746
  Pcmt1 (PCMT1) EV abundance Log2_FC: 1.133
  Pi4ka (PI4KA) EV abundance Log2_FC: −1.039
  Pitpnb (PITPNB) EV abundance Log2_FC: 0.09822
  Prpsap2 (PRPSAP2) EV abundance Log2_FC: −0.0814
  Psmc5 (PSMC5) EV abundance Log2_FC: 0.4458
  Psmd12 (PSMD12) EV abundance Log2_FC: −0.203
  Psme4 (PSME4) EV abundance Log2_FC: −0.2099
  Ptma (PTMA) EV abundance Log2_FC: 1.235
  Rap2b (RAP2B) EV abundance Log2_FC: −0.3288
  Rbm3 (RBM3) EV abundance Log2_FC: 0.84
  Rhoa (RHOA) EV abundance Log2_FC: 0.2121
  Rpl10 (RPL10) EV abundance Log2_FC: −0.05107
  Rpl13a (RPL13A) EV abundance Log2_FC: −0.1384
  Rps13 (RPS13) EV abundance Log2_FC: 0.02541
  Sec31a (SEC31A) EV abundance Log2_FC: 0.1051
  Slc2a1 (SLC2A1) EV abundance Log2_FC: 0.1088
  Stom (STOM) EV abundance Log2_FC: 0.01864
  Tardbp (TARDBP) EV abundance Log2_FC: 0.4388
  Tgfb2 (TGFB2) EV abundance Log2_FC: 0.3062
  Tln1 (TLN1) EV abundance Log2_FC: −0.1915
  Tln2 (TLN2) EV abundance Log2_FC: −0.3236
  Tubb1 (TUBB1) EV abundance Log2_FC: −0.6949
  Usp7 (USP7) EV abundance Log2_FC: 1.365
  Wdr26 (WDR26) EV abundance Log2_FC: −0.03177
  Zyx (ZYX) EV abundance Log2_FC: −0.2196
DYT1/DYT1+Sal (inverse ratio)
  Acaa1a (ACAA1) EV abundance Log2_FC: 0.8007
  Ano6 (ANO6) EV abundance Log2_FC: 0.3535
  Ap1b1 (AP1B1) EV abundance Log2_FC: −0.5874
  Arl8b (ARL8B) EV abundance Log2_FC: 0.08283
  Bzw2 (BZW2) EV abundance Log2_FC: 0.03057
  Cryab (CRYAB) EV abundance Log2_FC: −1.025
  DIst (DLST) EV abundance Log2_FC: 0.5172
  Ehd4 (EHD4) EV abundance Log2_FC: 0.149
  Flna (FLNA) EV abundance Log2_FC: 0.07088
  Fscn1 (FSCN1) EV abundance Log2_FC: 0.1414
  Gart (GART) EV abundance Log2_FC: −0.05776
  Hist1h1b (H1-5) EV abundance Log2_FC: 0.1163
  Hnrnpc (HNRNPC) EV abundance Log2_FC: 0.2845
  Ipo9 (IPO9) EV abundance Log2_FC: −0.3059
  Jam3 (JAM3) EV abundance Log2_FC: 0.6132
  Lipg (LIPG) EV abundance Log2_FC: 0.4507
  Lrrc59 (LRRC59) EV abundance Log2_FC: 0.4226
  Mapk3 (MAPK3) EV abundance Log2_FC: −0.6764
  Mars (MARS1) EV abundance Log2_FC: 0.1637
  Mrc2 (MRC2) EV abundance Log2_FC: −0.01917
  Myh9 (MYH9) EV abundance Log2_FC: 0.2742
  Ndnf (NDNF) EV abundance Log2_FC: 0.5746
  Pcmt1 (PCMT1) EV abundance Log2_FC: −1.133
  Pi4ka (PI4KA) EV abundance Log2_FC: 1.039
  Pitpnb (PITPNB) EV abundance Log2_FC: −0.09822
  Prpsap2 (PRPSAP2) EV abundance Log2_FC: 0.0814
  Psmc5 (PSMC5) EV abundance Log2_FC: −0.4458
  Psmd12 (PSMD12) EV abundance Log2_FC: 0.203
  Psme4 (PSME4) EV abundance Log2_FC: 0.2099
  Ptma (PTMA) EV abundance Log2_FC: −1.235
  Rap2b (RAP2B) EV abundance Log2_FC: 0.3288
  Rbm3 (RBM3) EV abundance Log2_FC: −0.84
  Rhoa (RHOA) EV abundance Log2_FC: −0.2121
  Rpl10 (RPL10) EV abundance Log2_FC: 0.05107
  Rpl13a (RPL13A) EV abundance Log2_FC: 0.1384
  Rps13 (RPS13) EV abundance Log2_FC: −0.02541
  Sec31a (SEC31A) EV abundance Log2_FC: −0.1051
  Slc2a1 (SLC2A1) EV abundance Log2_FC: −0.1088
  Stom (STOM) EV abundance Log2_FC: −0.01864
  Tardbp (TARDBP) EV abundance Log2_FC: −0.4388
  Tgfb2 (TGFB2) EV abundance Log2_FC: −0.3062
  Tln1 (TLN1) EV abundance Log2_FC: 0.1915
  Tln2 (TLN2) EV abundance Log2_FC: 0.3236
  Tubb1 (TUBB1) EV abundance Log2_FC: 0.6949
  Usp7 (USP7) EV abundance Log2_FC: −1.365
  Wdr26 (WDR26) EV abundance Log2_FC: 0.03177
  Zyx (ZYX) EV abundance Log2_FC: 0.2196
